Values quoted from earlier work in publication PMC6987128, “Target protein-oriented isolation of Hes1 dimer inhibitors using protein based methods” (Scientific Reports, 2020).

System: NSCs
Details: cited from earlier work

Compound | differentiation of NSCs to neurons
COc1ccc(-c2cc(=O)c3c(O[C@@H]4O[C@H](CO[C@@H]5OC[C@@H](O)[C@H](O)[C@H]5O)[C@@H](O)[C@H](O)[C@H]4O)cc(OC)cc3o2)cc1 [agalloside] | accelerated the differentiation of NSCs to neurons
C/C=C/C=C/C=C/[C@@H]1NCC[C@@H](O)[C@H]1C [inohanamine] | accelerated the differentiation of NSCs to neurons
isomicromonolactam | accelerated the differentiation of NSCs to neurons
